The target in the first assay is T1, human TREM2 (Homo sapiens, UniProt Q9NZC2).
T1 construct: expressed in transfected cells; host or cells: HEK293T (HEK293T-hTREM2 cells)
T1 sequence (Q9NZC2 19-230): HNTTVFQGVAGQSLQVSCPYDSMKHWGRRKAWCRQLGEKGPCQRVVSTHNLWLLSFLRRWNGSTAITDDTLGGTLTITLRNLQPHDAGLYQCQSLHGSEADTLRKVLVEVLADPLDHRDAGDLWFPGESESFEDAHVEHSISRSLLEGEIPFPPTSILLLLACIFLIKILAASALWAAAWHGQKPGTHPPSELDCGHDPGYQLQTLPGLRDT
T1 sequence (O43914 22-113 partner): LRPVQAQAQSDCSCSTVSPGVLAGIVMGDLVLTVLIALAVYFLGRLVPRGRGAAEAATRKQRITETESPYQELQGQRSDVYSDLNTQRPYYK
Put plainly: TREM2 agonist potency by cellular phosphorylation of Spleen Tyrosine Kinase (Syk), AlphaLisa, HEK293T-hTREM2 cells. It is filed as cell-based.
Settings: not given
Here is the method: Measurement of TREM2 agonist potency was done using a HEK cell line expressing human TREM2 and DAP12 (HEK293T-hTREM2 cells). Binding of small molecules to, and activation of, TREM2 increases the phosphorylation of Syk. The resultant levels of Syk phosphorylation are measured using a commercial AlphaLisa reagent kit. To perform the assay, HEK-hTREM2 cells were plated at 14,000 cells per well in a 384 well plate, in 25 μL of complete growth media and incubated at 37° C., 5% CO2 for 20-24 hours.
Prior to the assay, test compounds were diluted in the 384 well plates in assay buffer and allowed to equilibrate for 30 minutes. Growth media was removed from cell plates by inversion on blotting paper, and 25 μL of test articles in assay buffer was added to cells. Cells were incubated for 45 minutes at room temperature. After 45 minutes, assay buffer was removed and 10 μL of lysis buffer was added. Plates were shaken for 20 minutes at 350 RPM at room temperature. After complete lysis, AlphaLisa reagents were added to the lysate, and fluorescence intensity was measured using a Perkin Elmer Envision plate reader. Intensities were used to generate a standard curve, and % activation was calculated. Curve fitting was performed using Prism v9 software, log (agonist) vs response-variable slope (four parameters), and EC50s were calculated from the curve fit.
The results presented in Table B have been generated with the in vitro assay described above. This assay may be used to test any of the compounds described herein to assess and characterize a compound's ability to act as an agonist of TREM2.
`Cc1cc2c(-c3ccc(F)cc3F)nc(N3C[C@@H](C)O[C@@H](c4ccc(=O)n(C)c4)C3)cc2nc1C` [Example 196, 5-((2S,6R)-4-(5-(2,4-difluorophenyl)-2,3-dimethyl-1,6-naphthyridin-7-yl)-6-methylmorpholin-2-yl)-1-methylpyridin-2 (1H)-one]: the EC50 is < 100 nM.

Still in this assay, the particulars now being: hTREM2 EC50 Data (HEK293 Cells); Syk phosphorylation, AlphaLisa; read-out: hTREM2 EC50.
Regarding `Cc1nc2nc([C@H]3CCO[C@@H](c4ccc(=O)n(C)c4)C3)nc(-c3ccc(C(F)(F)F)cc3F)c2nc1C(F)F` [Example 126, 5-[(2R,4S)-4-[6-(difluoromethyl)-4-[2-fluoro-4-(trifluoromethyl)phenyl]-7-methyl-pteridin-2-yl]tetrahydropyran-2-yl]-1-methyl-pyridin-2-one], the EC50 lay in the range of 100 to 500 nM. Still for that read-out and setting: in the case of `Cc1nc2nc([C@H]3CCO[C@H](c4ccc(=O)n(C)c4)C3)cc(C34CC(C(F)(F)F)(C3)C4)c2nc1C` [Example 170, 1-methyl-5-[(2S,4S)-4-[2,3-dimethyl-8-[3-(trifluoromethyl)-1-bicyclo[1.1.1]pentanyl]pyrido[2,3-b]pyrazin-6-yl]tetrahydropyran-2-yl]pyridin-2-one] it was 100 to 500 nM.

With `Cc1noc(-c2cc3c(C45CC(C(F)(F)F)(C4)C5)nc([C@H]4CCO[C@@H](c5ccc(=O)n(C(F)F)c5)C4)nc3nc2C)n1` [Example 352], the EC50 was > 500 nM. Still for that read-out and setting: in the case of `CCCN(CCC)n1cc([C@H]2C[C@@H](c3nc(C45CC(C(F)(F)F)(C4)C5)c4nc(C)c(C)nc4n3)CCO2)ccc1=O` [Example 211, 5-[(2R,4S)-4-[6,7-dimethyl-4-[3-(trifluoromethyl)-1-bicyclo[1.1.1]pentanyl]pteridin-2-yl]tetrahydropyran-2-y1]-1-(dipropylamino)pyridin-2-one] it was < 100 nM; in that of `Cc1nc2nc([C@H]3CCO[C@@H](c4ccc(=O)n(C)c4)C3)nc(C3CCC(CF)CC3)c2nc1C` (stereo partly drawn) [Example 50, 5-[(2R,4S)-4-[4-[4-(fluoromethyl)-cyclohexyl]-6,7-dimethyl-pteridin-2-yl]tetrahydropyran-2-yl]-1-methyl-pyridin-2-one], < 100 nM. The same measure, in the same setting: the value for `Cc1nc2nc(N3C[C@@H](C)O[C@@H](c4ccc(=O)n(N)c4)C3)nc(C34CC(C(F)(F)F)(C3)C4)c2nc1C1COC1` [Example 185, 1-amino-5-[(2S,6R)-6-methyl-4-[7-methyl-6-(oxetan-3-yl)-4-[3-(trifluoromethyl)-1-bicyclo[1.1.1]pentanyl]pteridin-2-yl]morpholin-2-yl]pyridin-2-one] was 100 to 500 nM; that for `Cc1nc2nc(N3C[C@@H](C)O[C@@H](c4ccc(=O)n(N)c4)C3)nc(C34CC(C(F)(F)F)(C3)C4)c2nc1C` [Example 184, 1-amino-5-[(2S,6R)-4-[6,7-dimethyl-4-[3-(trifluoromethyl)-1-bicyclo[1.1.1]pentanyl]pteridin-2-yl]-6-methyl-morpholin-2-yl]pyridin-2-one] was < 100 nM. Still for that read-out and setting: the value for `Cc1nc2nc([C@H]3CCO[C@@H](c4ccc(=O)[nH]c4)C3)nc(C34CC(C(F)(F)F)(C3)C4)c2nc1C` [Example 34, 5-[(2R,4S)-4-[6,7-dimethyl-4-[3-(trifluoromethyl)-1-bicyclo[1.1.1]pentanyl]pteridin-2-yl]tetrahydropyran-2-yl]-1H-pyridin-2-one] was < 100 nM; that for `Cc1nc2nc(N3C[C@@H](C)O[C@@H](c4ccc(=O)n(C)c4)C3)nc(C34CC(C(F)(F)F)(C3)C4)c2nc1C` [Example 62, 5-[(2S,6R)-4-[6,7-dimethyl-4-[3-(trifluoro-methyl)-1-bicyclo[1.1.1]pentanyl]pteridin-2-yl]-6-methyl-morpholin-2-yl]-1-methyl-pyridin-2-one] was < 100 nM; that for `Cc1nc2nc([C@H]3CCO[C@@H](c4ccc(=O)n(C5CC5)c4)C3)nc(C34CC(C(F)(F)F)(C3)C4)c2nc1C` [Example 74, 1-cyclopropyl-5-[(2R,4S)-4-[6,7-dimethyl-4-[3-(trifluoromethyl)-1-bicyclo[1.1.1]pentanyl]pteridin-2-yl]tetrahydropyran-2-yl]pyridin-2-one] was < 100 nM.
